Reference: patent publication US9145373B2, “Certain kynurenine-3-monooxygenase inhibitors, pharmaceutical compositions, and methods of use thereof” (CHDI FOUNDATION, INC., priority 2008, dated 2015)

Biological target: T1, KMO mouse enzyme (Mus musculus, UniProt Q91WN4)
T1 construct: KMO enzyme prepared at Evotec from mouse liver (4-6 weeks old) via mitochondria isolation; from tissue; host or cells: mouse liver (4-6 weeks old), mitochondria isolation, prepared at Evotec
Assay: KMO mouse enzyme assay: L-Kynurenine hydroxylation to 3-Hydroxy-Kynurenine monitored by LC/MS (MRM)
Type: biochemical
Conditions: compound at 10 μM; KMO enzyme from mouse liver mitochondria; read-out: INH.Mouse @ 10 μM
Description: A method of monitoring L-Kynurenine (KYN) hydroxylation to form 3-Hydroxy-Kynurenine (3OH-KYN) by LC/MS is described. Product is quantified by multiple reaction monitoring (MRM method).
• Compound: Stock concentrations: 10 mM in 100% DMSO • Enzyme: KMO enzyme prepared at Evotec from mouse liver (4-6 weeks old) via mitochondria isolation as described in the literature • Substrate: L-Kynurenine (Sigma: Cat# K3750, stock concentration: 10 mM in 100 mM potassium phosphate buffer, pH 7.4) Assay Conditions: […]

T1 sequence (Q91WN4 whole entry): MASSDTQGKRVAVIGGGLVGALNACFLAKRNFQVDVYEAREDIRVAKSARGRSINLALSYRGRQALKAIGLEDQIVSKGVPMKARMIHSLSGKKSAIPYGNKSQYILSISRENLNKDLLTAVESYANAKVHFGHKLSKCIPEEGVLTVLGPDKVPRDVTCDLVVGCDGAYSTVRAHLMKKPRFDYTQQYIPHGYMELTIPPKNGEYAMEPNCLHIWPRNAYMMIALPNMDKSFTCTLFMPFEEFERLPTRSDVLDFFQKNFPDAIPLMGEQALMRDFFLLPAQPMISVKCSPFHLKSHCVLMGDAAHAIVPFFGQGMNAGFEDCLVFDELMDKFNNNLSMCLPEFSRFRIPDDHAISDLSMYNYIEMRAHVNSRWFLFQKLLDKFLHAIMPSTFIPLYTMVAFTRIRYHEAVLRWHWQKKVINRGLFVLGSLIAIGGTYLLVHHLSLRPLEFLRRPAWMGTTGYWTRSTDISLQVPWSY

| inhibition at 10 µM [%] | Compound |
| --- | --- |
| 83.7 | O=C(Nc1nccs1)c1cc(-c2ccc(Cl)c(Cl)c2)ncn1 [6-(3,4-Dichloro-phenyl)-pyrimidine-4-carboxylic acid thiazol-2-ylamide] |
| 100 | COC(=O)c1cc(-c2ccc(F)c(F)c2)ncn1 [6-(3,4-Difluoro-phenyl)-pyrimidine-4-carboxylic acid methyl ester] |
| 84.7 | O=C(Nc1cccnc1)c1cc(-c2ccc(F)c(F)c2)ncn1 [6-(3,4-Difluoro-phenyl)-pyrimidine-4-carboxylic acid pyridin-3-ylamide] |
| 100 | O=C(Nc1cncnc1)c1cc(-c2ccc(F)c(F)c2)ncn1 [6-(3,4-Difluoro-phenyl)-pyrimidine-4-carboxylic acid pyrimidin-5-ylamide] |
| 54.8 | COc1cncc(NC(=O)c2cc(-c3cc(Cl)cc(Cl)c3)ncn2)c1 [6-(3,5-Dichloro-phenyl)-pyrimidine-4-carboxylic acid (5-methoxy-pyridin-3-yl)-amide] |
| 101 | COC(=O)c1cc(-c2cc(Cl)cc(Cl)c2)ncn1 [6-(3,5-Dichloro-phenyl)-pyrimidine-4-carboxylic acid methyl ester] |
| 77.6 | O=C(Nc1ccccc1)c1cc(-c2cc(Cl)cc(Cl)c2)ncn1 [6-(3,5-Dichloro-phenyl)-pyrimidine-4-carboxylic acid phenylamide] |
| 72.2 | O=C(Nc1cccnc1)c1cc(-c2cc(Cl)cc(Cl)c2)ncn1 [6-(3,5-Dichloro-phenyl)-pyrimidine-4-carboxylic acid pyridin-3-ylamide] |
| 100 | COC(=O)c1cc(-c2cccc(Cl)c2F)ncn1 [6-(3-Chloro-2-fluoro-phenyl)-pyrimidine-4-carboxylic acid methyl ester] |
| 100 | COC(=O)c1cc(-c2ccc(F)c(Cl)c2)ncn1 [6-(3-Chloro-4-fluoro-phenyl)-pyrimidine-4-carboxylic acid methyl ester] |
| 100 | COC(=O)c1cc(-c2ccc(OC)c(Cl)c2)ncn1 [6-(3-Chloro-4-methoxy-phenyl)-pyrimidine-4-carboxylic acid methyl ester] |
| 100 | COC(=O)c1cc(-c2ccc(C(F)(F)F)c(Cl)c2)ncn1 [6-(3-Chloro-4-trifluoromethyl-phenyl)-pyrimidine-4-carboxylic acid methyl ester] |
| 48.3 | O=C(Nc1cccnc1)c1cc(-c2ccc(C(F)(F)F)c(Cl)c2)ncn1 [6-(3-Chloro-4-trifluoromethyl-phenyl)-pyrimidine-4-carboxylic acid pyridin-3-ylamide] |
| 100 | COC(=O)c1cc(-c2cccc(Cl)c2)nc(C)n1 [6-(3-Chloro-phenyl)-2-methyl-pyrimidine-4-carboxylic acid methyl ester] |
| 100 | Cc1nc(C(=O)O)cc(-c2cccc(Cl)c2)n1 [6-(3-Chloro-phenyl)-2-methyl-pyrimidine-4-carboxylic acid] |
| 100 | Cn1ccc(NC(=O)c2cc(-c3cccc(Cl)c3)ncn2)n1 [6-(3-Chloro-phenyl)-pyrimidine-4-carboxylic acid (1-methyl-1H-pyrazol-3-yl)-amide] |
| 100 | Cn1cc(NC(=O)c2cc(-c3cccc(Cl)c3)ncn2)cn1 [6-(3-Chloro-phenyl)-pyrimidine-4-carboxylic acid (1-methyl-1H-pyrazol-4-yl)-amide] |
| 97.7 | O=C(Nc1ccc2c(c1)OC(F)(F)O2)c1cc(-c2cccc(Cl)c2)ncn1 [6-(3-Chloro-phenyl)-pyrimidine-4-carboxylic acid (2,2-difluoro-benzo[1,3]dioxol-5-yl)-amide] |
| 98.7 | CN(C(=O)c1cc(-c2cccc(Cl)c2)ncn1)c1ccc2c(c1)OC(F)(F)O2 [6-(3-Chloro-phenyl)-pyrimidine-4-carboxylic acid (2,2-difluoro-benzo[1,3]dioxol-5-yl)-methyl-amide] |
| 95.8 | O=C(NCCO)c1cc(-c2cccc(Cl)c2)ncn1 [6-(3-Chloro-phenyl)-pyrimidine-4-carboxylic acid (2-hydroxy-ethyl)-amide] |
| 100 | COc1ccccc1NC(=O)c1cc(-c2cccc(Cl)c2)ncn1 [6-(3-Chloro-phenyl)-pyrimidine-4-carboxylic acid (2-methoxy-phenyl)-amide] |
| 97.8 | Cc1ncccc1NC(=O)c1cc(-c2cccc(Cl)c2)ncn1 [6-(3-Chloro-phenyl)-pyrimidine-4-carboxylic acid (2-methyl-pyridin-3-yl)-amide] |
| 79 | Cc1noc(C)c1NC(=O)c1cc(-c2cccc(Cl)c2)ncn1 [6-(3-Chloro-phenyl)-pyrimidine-4-carboxylic acid (3,5-dimethyl-isoxazol-4-yl)-amide] |
| 97.1 | COc1cccc(NC(=O)c2cc(-c3cccc(Cl)c3)ncn2)c1 [6-(3-Chloro-phenyl)-pyrimidine-4-carboxylic acid (3-methoxy-phenyl)-amide] |

| inhibition at 10 µM [%] | Compound |
| --- | --- |
| 85.4 | Cc1nsc(NC(=O)c2cc(-c3cccc(Cl)c3)ncn2)n1 [6-(3-Chloro-phenyl)-pyrimidine-4-carboxylic acid (3-methyl-[1,2,4]thiadiazol-5-yl)-amide] |
| 100 | Cc1cc(NC(=O)c2cc(-c3cccc(Cl)c3)ncn2)on1 [6-(3-Chloro-phenyl)-pyrimidine-4-carboxylic acid (3-methyl-isoxazol-5-yl)-amide] |
| 98.9 | O=C(Nc1ccc(F)cc1)c1cc(-c2cccc(Cl)c2)ncn1 [6-(3-Chloro-phenyl)-pyrimidine-4-carboxylic acid (4-fluoro-phenyl)-amide] |
| 100 | COc1ccc(NC(=O)c2cc(-c3cccc(Cl)c3)ncn2)cc1 [6-(3-Chloro-phenyl)-pyrimidine-4-carboxylic acid (4-methoxy-phenyl)-amide] |
| 100 | COc1ccc(N(C)C(=O)c2cc(-c3cccc(Cl)c3)ncn2)cc1 [6-(3-Chloro-phenyl)-pyrimidine-4-carboxylic acid (4-methoxy-phenyl)-methyl-amide] |
| 91 | COc1ccncc1NC(=O)c1cc(-c2cccc(Cl)c2)ncn1 [6-(3-Chloro-phenyl)-pyrimidine-4-carboxylic acid (4-methoxy-pyridin-3-yl)-amide] |
| 93.6 | O=C(Nc1ccc(N2CCOCC2)cc1)c1cc(-c2cccc(Cl)c2)ncn1 [6-(3-Chloro-phenyl)-pyrimidine-4-carboxylic acid (4-morpholin-4-yl-phenyl)-amide] |
| 100 | COc1cncc(NC(=O)c2cc(-c3cccc(Cl)c3)ncn2)c1 [6-(3-Chloro-phenyl)-pyrimidine-4-carboxylic acid (5-methoxy-pyridin-3-yl)-amide] |
| 100 | Cc1nnc(NC(=O)c2cc(-c3cccc(Cl)c3)ncn2)o1 [6-(3-Chloro-phenyl)-pyrimidine-4-carboxylic acid (5-methyl-[1,3,4]oxadiazol-2-yl)-amide] |
| 93.4 | COc1ccc(NC(=O)c2cc(-c3cccc(Cl)c3)ncn2)cn1 [6-(3-Chloro-phenyl)-pyrimidine-4-carboxylic acid (6-methoxy-pyridin-3-yl)-amide] |
| 85.3 | Cc1ccc(NC(=O)c2cc(-c3cccc(Cl)c3)ncn2)cn1 [6-(3-Chloro-phenyl)-pyrimidine-4-carboxylic acid (6-methyl-pyridin-3-yl)-amide] |
| 89.1 | O=C(Nc1ccc(C(F)(F)F)nc1)c1cc(-c2cccc(Cl)c2)ncn1 [6-(3-Chloro-phenyl)-pyrimidine-4-carboxylic acid (6-trifluoromethyl-pyridin-3-yl)-amide] |
| 99.2 | C[C@@H](NC(=O)c1cc(-c2cccc(Cl)c2)ncn1)c1ccccc1 [6-(3-Chloro-phenyl)-pyrimidine-4-carboxylic acid ((R)-1-phenyl-ethyl)-amide] |
| 74.3 | C[C@@H](O)CNC(=O)c1cc(-c2cccc(Cl)c2)ncn1 [6-(3-Chloro-phenyl)-pyrimidine-4-carboxylic acid ((R)-2-hydroxy-propyl)-amide] |
| 99.8 | C[C@H](NC(=O)c1cc(-c2cccc(Cl)c2)ncn1)c1ccccc1 [6-(3-Chloro-phenyl)-pyrimidine-4-carboxylic acid ((S)-1-phenyl-ethyl)-amide] |
| 87.3 | C[C@H](O)CNC(=O)c1cc(-c2cccc(Cl)c2)ncn1 [6-(3-Chloro-phenyl)-pyrimidine-4-carboxylic acid ((S)-2-hydroxy-propyl)-amide] |
| 96.7 | O=C(NCc1cccnc1)c1cc(-c2cccc(Cl)c2)ncn1 [6-(3-Chloro-phenyl)-pyrimidine-4-carboxylic acid (pyridin-3-ylmethyl)-amide] |
| 100 | O=C(NCc1ccncc1)c1cc(-c2cccc(Cl)c2)ncn1 [6-(3-Chloro-phenyl)-pyrimidine-4-carboxylic acid (pyridin-4-ylmethyl)-amide] |
| 97.4 | O=C(Nc1nncs1)c1cc(-c2cccc(Cl)c2)ncn1 [6-(3-Chloro-phenyl)-pyrimidine-4-carboxylic acid [1,3,4]thiadiazol-2-ylamide] |
| 77.5 | NC(=O)c1cc(-c2cccc(Cl)c2)ncn1 [6-(3-Chloro-phenyl)-pyrimidine-4-carboxylic acid amide] |
| 67 | O=C(NCc1ccccc1)c1cc(-c2cccc(Cl)c2)ncn1 [6-(3-Chloro-phenyl)-pyrimidine-4-carboxylic acid benzylamide] |
| 100 | CN(C)C(=O)c1cc(-c2cccc(Cl)c2)ncn1 [6-(3-Chloro-phenyl)-pyrimidine-4-carboxylic acid dimethylamide] |
| 100 | CCNC(=O)c1cc(-c2cccc(Cl)c2)ncn1 [6-(3-Chloro-phenyl)-pyrimidine-4-carboxylic acid ethylamide] |
